From patent US11414416B1, “Compounds and uses thereof” (Foghorn Therapeutics Inc., priority 2019, dated 2022) come the findings set out here.

The structures appear in SMILES notation.

Experiment [1] addresses BRD9 bromodomain (Homo sapiens (Human), UniProt Q9H8M2). The experiment can be described thus: BRD9 bromodomain TR-FRET competition binding assay. The note with it: Table 4; competition with biotinylated ligand, 3 nM Flag-BRD9, 90 minutes. How it is done:
Procedure: His-Flag-BRD9 (P133-K239; Swiss Prot Q9H8M2; SEQ ID NO:1 mgsshhhhhhenlyfq/gdykddddkgslevlfqg/[…] […]) was cloned, expressed, purified, and then treated with TEV protease. Cleaved His tag was removed by purification. The binding of a biotinylated small molecule ligand of BRD9 was assessed via the LANCE® TR-FRET platform (PerkinElmer), and the compounds were assayed for inhibitory activity against this interaction.
A mixture of biotinylated-ligand and SureLight™ Allophycocyanin-Streptavidin (APC-SA, PerkinElmer AD0201) in 50 mM HEPES (pH 7.4), 50 mM NaCl, 1 mM TCEP (pH 7), 0.01% (v/v) Tween-20, 0.01% (w/v) bovine serum albumin was added to a white 384-well PerkinElmer Proxiplate Plus plate. DMSO or 3-fold serially diluted compounds were then added to the Proxiplate followed by addition of Flag-BRD9. After a 10-minute incubation at room temperature, Eu-W1024 anti-FLAG (PerkinElmer, AD0273) was added. The final reaction mixture that contained 3.75 nM biotinylated ligand, 3 nM Flag-BRD9, 7.5 nM SureLight™ Allophycocyanin-Streptavidin, and 0.2 nM Eu-W1024 anti-FLAG was incubated at room temperature for 90 minutes.
Results: The plates were then read on a PerkinElmer Envision plate reader to determine the ratio of emission at 665 nm over 615 nm. […]

For experiment [2], the target named is Nanoluciferase-BRD9 fusion protein (Homo sapiens (Human), UniProt Q9H8M2). The experiment can be described thus: SYO1 BRD9 NanoLuc degradation assay. The class given is cell-based. As to conditions: Table 5A, SYO-1 cells expressing 3×FLAG-NLuc-BRD9, 6 hours; for DC50: read-out: SYO1 BRD9-NanoLuc degradation IC50. The gist of the method: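 Degradation was read as loss of nanoluciferase signal (Nano-Glo) after 6 h compound exposure in a stable SYO-1 line carrying 3×FLAG-NLuc-BRD9 (8000 cells/well). Normalised between DMSO (high) and a 1 μM known BRD9 degrader (low).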
Chain of Nanoluciferase-BRD9 fusion protein (Q9H8M2 whole entry, the tested form may be a part): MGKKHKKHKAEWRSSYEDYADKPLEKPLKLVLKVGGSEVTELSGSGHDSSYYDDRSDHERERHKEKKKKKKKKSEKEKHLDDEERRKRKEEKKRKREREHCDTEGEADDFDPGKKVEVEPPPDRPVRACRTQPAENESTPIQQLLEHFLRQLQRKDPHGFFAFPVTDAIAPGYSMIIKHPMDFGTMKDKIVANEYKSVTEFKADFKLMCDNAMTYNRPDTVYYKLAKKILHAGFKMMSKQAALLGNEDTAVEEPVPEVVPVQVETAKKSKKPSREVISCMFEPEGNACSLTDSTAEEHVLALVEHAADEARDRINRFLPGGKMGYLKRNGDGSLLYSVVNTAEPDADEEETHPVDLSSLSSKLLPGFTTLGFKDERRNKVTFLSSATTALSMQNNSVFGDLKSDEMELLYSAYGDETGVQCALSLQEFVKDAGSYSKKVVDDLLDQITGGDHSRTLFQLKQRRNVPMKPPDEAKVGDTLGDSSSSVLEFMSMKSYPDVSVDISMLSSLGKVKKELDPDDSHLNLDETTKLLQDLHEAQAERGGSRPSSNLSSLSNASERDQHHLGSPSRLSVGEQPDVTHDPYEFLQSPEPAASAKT

Chain of BRD9 bromodomain (Q9H8M2 133-239): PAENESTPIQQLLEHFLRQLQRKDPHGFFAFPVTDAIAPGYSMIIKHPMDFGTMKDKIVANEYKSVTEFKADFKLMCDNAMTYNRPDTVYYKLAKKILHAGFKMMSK

For `COc1cc(-c2cn(C)c(=O)c3cc(O)ccc23)cc(OC)c1CN1CCC2(CC1)CN(C(=O)CCCOc1cccc3c1C(=O)N(C1CCC(=O)NC1=O)C3=O)CCO2` (stereo not drawn) [Compound D54, 2-(2,6-dioxopiperidin-3-yl)-4-[4-(9-[[4-(7-hydroxy-2-methyl-1-oxoisoquinolin-4-yl)-2,6-dimethoxyphenyl]methyl]-1-oxa-4,9-diazaspiro[5.5]undecan-4-yl)-4-oxobutoxy]isoindole-1,3-dione formic acid], the IC50 in experiment [1] and in experiment [2] was 10 to 100 nM throughout.
For `COc1cc(-c2cn(C)c(=O)c3cnccc23)cc(OC)c1CN(C)CC12CC(C(=O)NCCOCCOCCNc3cccc4c3C(=O)N(C3CCC(=O)NC3=O)C4=O)(C1)C2` (stereo not drawn) [Compound D55, 3-[([[2,6-dimethoxy-4-(2-methyl-1-oxo-2,7-naphthyridin-4-yl)phenyl]methyl](methyl)amino)methyl]-N-[2-[2-(2-[[2-(2,6-dioxopiperidin-3-yl)-1,3-dioxoisoindol-4-yl]amino]ethoxy)ethoxy]ethyl]bicyclo[1.1.1]pentane-1-carboxamide], the IC50 was in the range of 10 to 100 nM in experiment [1] and 100 to 1000 nM in experiment [2].
In the same order, the values of `COc1cc(-c2cn(C)c(=O)c3cnccc23)cc(OC)c1CN(C)CC12CC(C(=O)NCCCCCNc3cccc4c3C(=O)N(C3CCC(=O)NC3=O)C4=O)(C1)C2` (stereo not drawn) [Compound D56, 3-[([[2,6-dimethoxy-4-(2-methyl-1-oxo-2,7-naphthyridin-4-yl)phenyl]methyl](methyl)amino)methyl]-N-(5-[[2-(2,6-dioxopiperidin-3-yl)-1,3-dioxoisoindol-4-yl]amino]pentyl)bicyclo[1.1.1]pentane-1-carboxamide] are less than 10 nM and less than 10 nM.
With `COc1cc(-c2cn(C)c(=O)c3cnccc23)cc(OC)c1CN(C)C12CC(C(=O)NCCCCCNc3cccc4c3C(=O)N(C3CCC(=O)NC3=O)C4=O)(C1)C2` (stereo not drawn) [Compound D57, 3-([[2,6-dimethoxy-4-(2-methyl-1-oxo-2,7-naphthyridin-4-yl)phenyl]methyl](methyl)amino)-N-(5-[[2-(2,6-dioxopiperidin-3-yl)-1,3-dioxoisoindol-4-yl]amino]pentyl)bicyclo[1.1.1]pentane-1-carboxamide formic acid], the IC50 in experiment [1] was 10 to 100 nM; in experiment [2], less than 10 nM.
As for `COc1cc(-c2cn(C)c(=O)c3cnccc23)cc(OC)c1CN(C)C12CC(C(=O)NCCOCCOCCNc3cccc4c3C(=O)N(C3CCC(=O)NC3=O)C4=O)(C1)C2` (stereo not drawn) [Compound D58, 3-([[2,6-dimethoxy-4-(2-methyl-1-oxo-2,7-naphthyridin-4-yl)phenyl]methyl] (methyl)amino)-N-[2-[2-(2-[[2-(2,6-dioxopiperidin-3-yl)-1,3-dioxoisoindol-4-yl]amino]ethoxy)ethoxy]ethyl]bicyclo[1.1.1]pentane-1-carboxamide], the IC50 in experiment [1] and in experiment [2] was less than 10 nM throughout.
Take `COc1cc(-c2cn(C)c(=O)c3cnccc23)cc(OC)c1CN(C)C12CC(NC(=O)CCOCCOCCNc3cccc4c3C(=O)N(C3CCC(=O)NC3=O)C4=O)(C1)C2` (stereo not drawn) [Compound D59, N-[3-([[2,6-dimethoxy-4-(2-methyl-1-oxo-2,7-naphthyridin-4-yl)phenyl]methyl](methyl)amino)bicyclo[1.1.1]pentan-1-yl]-3-[2-(2-[[2-(2,6-dioxopiperidin-3-yl)-1,3-dioxoisoindol-4-yl]amino]ethoxy)ethoxy]propanamide formic acid]: the IC50 in experiment [1] and in experiment [2] was less than 10 nM in each case.
With `COc1cc(-c2cn(C)c(=O)c3cnccc23)cc(OC)c1CN(C)C12CC(NC(=O)CCCCCOc3cccc4c3C(=O)N(C3CCC(=O)NC3=O)C4=O)(C1)C2` (stereo not drawn) [Compound D60, N-[3-([[2,6-dimethoxy-4-(2-methyl-1-oxo-2,7-naphthyridin-4-yl)phenyl]methyl](methyl)amino)bicyclo[1.1.1]pentan-1-yl]-6-[[2-(2,6-dioxopiperidin-3-yl)-1,3-dioxoisoindol-4-yl]oxy]hexanamide formic acid], the IC50 in experiment [1] and in experiment [2] was less than 10 nM in each case.
Regarding `COc1cc(-c2cn(C)c(=O)c3cnccc23)cc(OC)c1CN1CCC2(CC1)CN(C(=O)COc1ccc3c(c1)C(=O)N(C1CCC(=O)NC1=O)C3=O)CCO2` (stereo not drawn) [Compound D64, 5-[2-(9-[[2,6-dimethoxy-4-(2-methyl-1-oxo-2,7-naphthyridin-4-yl)phenyl]methyl]-1-oxa-4,9-diazaspiro[5.5]undecan-4-yl)-2-oxoethoxy]-2-(2,6-dioxopiperidin-3-yl)isoindole-1,3-dione formic acid], the values for the IC50 in experiment [1] and in experiment [2] were 10 to 100 nM and 100 to 1000 nM, respectively.
Turning to `COc1cc(-c2cn(C)c(=O)c3cnccc23)cc(OC)c1CN1CCN(C(=O)C2CC2CNC(=O)COc2cccc3c2C(=O)N(C2CCC(=O)NC2=O)C3=O)CC1` (stereo not drawn) [Compound D65, N-[[2-(4-[[2,6-dimethoxy-4-(2-methyl-1-oxo-2,7-naphthyridin-4-yl)phenyl]methyl]piperazine-1-carbonyl)cyclopropyl]methyl]-2-[[2-(2,6-dioxopiperidin-3-yl)-1,3-dioxoisoindol-4-yl]oxy]acetamide], the IC50 in experiment [1] lay in the range of 10 to 100 nM; in experiment [2], 100 to 1000 nM.
On to `COc1cc(-c2cn(C)c(=O)c3cnccc23)cc(OC)c1CN1CCN(C(=O)C2CC2CNC(=O)COc2ccc3c(c2)C(=O)N(C2CCC(=O)NC2=O)C3=O)CC1` (stereo not drawn) [Compound D66, N-[[2-(4-[[2,6-dimethoxy-4-(2-methyl-1-oxo-2,7-naphthyridin-4-yl)phenyl]methyl]piperazine-1-carbonyl)cyclopropyl]methyl]-2-[[2-(2,6-dioxopiperidin-3-yl)-1,3-dioxoisoindol-5-yl]oxy]acetamide formic acid], for which the IC50 was in the range of 10 to 100 nM in experiment [1] and 100 to 1000 nM in experiment [2].
`COc1cc(-c2cn(C)c(=O)c3cnccc23)cc(OC)c1CN1CC(S(=O)(=O)NCCCCCCNc2ccc3c(c2)C(=O)N(C2CCC(=O)NC2=O)C3=O)C1` (stereo not drawn) [Compound D67, 1-[[2,6-dimethoxy-4-(2-methyl-1-oxo-1,2-dihydro-2,7-naphthyridin-4-yl)phenyl]methyl]-N-(6-[[2-(2,6-dioxopiperidin-3-yl)-1,3-dioxo-2,3-dihydro-1H-isoindol-5-yl]amino]hexyl)azetidine-3-sulfonamide formic acid]: the half-maximal inhibitory concentration (IC50) in experiment [1] and in experiment [2] was less than 10 nM each time.
Compound `COc1cc(-c2cn(C)c(=O)c3cnccc23)cc(OC)c1CN(C)CC12CC(NC(=O)CCOCCOCCNc3cccc4c3C(=O)N(C3CCC(=O)NC3=O)C4=O)(C1)C2` (stereo not drawn) [Compound D68, N-[3-[([[2,6-dimethoxy-4-(2-methyl-1-oxo-2,7-naphthyridin-4-yl)phenyl]methyl](methyl)amino)methyl]bicyclo[1.1.1]pentan-1-yl]-3-[2-(2-[[2-(2,6-dioxopiperidin-3-yl)-1,3-dioxoisoindol-4-yl]amino]ethoxy)ethoxy]propanamide formic acid] returned an IC50 in experiment [1] of less than 10 nM. In experiment [2], the DC50 lay within 100 to 1000 nM.
As to `COc1cc(-c2cn(C)c(=O)c3cnccc23)cc(OC)c1CN(C)CC12CC(NC(=O)CCCCOc3cccc4c3C(=O)N(C3CCC(=O)NC3=O)C4=O)(C1)C2` (stereo not drawn) [Compound D69, N-[3-[([[2,6-dimethoxy-4-(2-methyl-1-oxo-2,7-naphthyridin-4-yl)phenyl]methyl](methyl)amino)methyl]bicyclo[1.1.1]pentan-1-yl]-5-[[2-(2,6-dioxopiperidin-3-yl)-1,3-dioxoisoindol-4-yl]oxy]pentanamide], the IC50 in experiment [1] and in experiment [2] was less than 10 nM in each case.
Turning to `COc1cc(-c2cn(C)c(=O)c3cnccc23)cc(OC)c1CN(C)CCCOCCN1CCN(c2ccc3c(c2)C(=O)N(C2CCC(=O)NC2=O)C3=O)CC1` (stereo not drawn) [Compound D70, 5-(4-[2-[3-([[2,6-dimethoxy-4-(2-methyl-1-oxo-2,7-naphthyridin-4-yl)phenyl]methyl](methyl)amino)propoxy]ethyl]piperazin-1-yl)-2-(2,6-dioxopiperidin-3-yl)isoindole-1,3-dione formic acid], the IC50 in experiment [1] and in experiment [2] was 10 to 100 nM throughout.
As to `COc1cc(-c2cn(C)c(=O)c3cnccc23)cc(OC)c1CN(C)CC(=O)NCCCC(=O)NC12CC(Nc3cccc4c3C(=O)N(C3CCC(=O)NC3=O)C4=O)(C1)C2` (stereo not drawn) [Compound D71, 4-(2-((2,6-dimethoxy-4-(2-methyl-1-oxo-1,2-dihydro-2,7-naphthyridin-4-yl)benzyl) (methyl)amino)acetamido)-N-(3-((2-(2,6-dioxopiperidin-3-yl)-1,3-dioxoisoindolin-4-yl)amino)bicycle[1.1.1]pentan-1-yl)butanamide], the IC50 in experiment [1] was less than 10 nM. In experiment [2], the DC50 is less than 10 nM.
